For one data set, the system named is human platelet. Put plainly: inhibition of human platelet aggregation in PRP. Format: cell-based. The source says: (2) Activity on human platelet
PRP (platelet-rich plasma) was centrifugally separated from human blood to which sodium citrate had been added, and used as a sample. Collagen, adrenaline and adenosine diphosphate were used as substances causing platelet aggregation. The inhibitory effect of the compound A against platelet aggregation included by these substances was examined.
(§1) The inhibiting activity on human platelet aggregation and the relaxing activity on mesenteric artery (the artery being extracted from rabbits) of compounds B to G of the invention were also examined in the same way as in I, (1) and (2). The mesenteric artery relaxing activity was shown in terms of the concentration (μM) of each compound which was required to cause 50% of the maximum relaxation, and the platelet aggregation inhibiting activity, in terms of the concentration (μM) of each compound which was required to inhibit aggregation to an extent of 50%. The platelet aggregation inhibiting activities of these compounds agreed relatively well with their artery relaxing activities

Another data set is described as follows: acute toxicity test. The settings on record: mouse, in vivo. Here is the method: An acute toxicity test was carried out by using male dd-strain mice (body weight 16 to 20 g).
For another data set, the system named is mesenteric artery. The data set is described as follows: relaxing activity against contraction by KCl, extracted rabbit blood vessels (mesenteric artery). The settings on record: Oryctolagus cuniculus. The protocol:
(§2) (1) Activity on the extracted blood vessels of a rabbit
(§3) A rabbit with a body weight of 2 to 3 kg was bled to death, and the thoracic aorta, mesenteric artery, renal artery, basilar artery and portal vein were extracted. Helical stripe specimens of these blood vessels were prepared. The specimens were suspended in a Magnus vessel, and the relaxing activity of the compound A against contraction of the specimens by KCl was examined. […] It is seen therefore that the compound A differs in activity from nitroglycerin having a strong relaxing activity on the veins, and has a strong relaxing activity on arteries, for example the coronary artery, the renal artery, etc.
as §1

A further data set has as its system portal vein. The data set is described as follows: relaxing activity against contraction by KCl, extracted rabbit blood vessels (portal vein). The settings on record: Oryctolagus cuniculus, helical stripe specimens, read-out: ED50 (relaxing activity against KCl contraction). Here is the method:
as §2, §3

A short description of data set [1]: activity on the respiration, blood pressure, heart rate and blood flow rate of a dog. It counts as in vivo, dog (male Beagle). The settings on record: intravenous, pentobarbital anesthesia. The protocol:
(3) Activity on the respiration, blood pressure, heart rate and blood flow rate of a dog.
The test was carried out under pentobarbital anesthesia using a male Beagle dog having a body weight of about 10 kg. The respiration was measured by means of a pneumotachograph; the blood pressure, by inserting a cannula into the femoral artery; the heart rate, by a cardiotachometer; and the rate of blood flow, by means of an electromagnetic blood flow meter by mounting a measuring probe on the vertebral artery and the femoral artery.
The present compound A was intraveneously administered as a solution in physiological saline.

A further data set deals with basilar artery. Put plainly: relaxing activity against contraction by KCl, extracted rabbit blood vessels (basilar artery). The settings on record: Oryctolagus cuniculus, helical stripe specimens, read-out: ED50 (relaxing activity against KCl contraction). Here is the method: as §2, §3
For another data set, the system named is renal artery. The data set is described as follows: relaxing activity against contraction by KCl, extracted rabbit blood vessels (renal artery). The settings on record: Oryctolagus cuniculus, helical stripe specimens, read-out: ED50 (relaxing activity against KCl contraction). The protocol:
as §2, §3

Another data set relates to thoracic aorta. The data set is described as follows: relaxing activity against contraction by KCl, extracted rabbit blood vessels (thoracic aorta). The settings on record: Oryctolagus cuniculus, helical stripe specimens, read-out: ED50 (relaxing activity against KCl contraction). Here is the method: as §2, §3
For another data set, the system named is coronary artery. The data set is described as follows: relaxing activity against contraction by KCl, extracted rabbit blood vessels (coronary artery). The settings on record: Oryctolagus cuniculus, helical stripe specimens, read-out: ED50 (relaxing activity against KCl contraction). Here is the method: as §2, §3
Setting [2] is: Table 1, human platelets, inducing substance not stated, read-out: Platelet aggregation inhibiting activity (concentration required to inhibit aggregation to an extent of 50%).
Setting [3] is: Table 1, artery extracted from rabbits, same way as in I (1), read-out: Mesenteric artery relaxing activity (concentration required to cause 50% of the maximum relaxation).

The values that follow come from patent US4421754A, “Syndonimine derivatives, process for production thereof, and use thereof” (Hidaka; Hiroyoshi, priority 1981, dated 1983).

pEC50, pIC50: −log10 of the molar value. Like-named read-outs stand apart in the source and are kept apart here.

`N=c1c[n+](N2CCN(CCCCC(=O)c3ccccc3)CC2)[n-]o1` [compound A, 3-[4-(4-Benzoylbutyl)piperazin-1-yl]sydnonimine]: the pIC50 in the data set with human platelet (induced by adenosine diphosphate, human PRP, read-out: concentration which achieved a 50% inhibition of the platelet aggregation) was 5.82; in the data set on human platelet (induced by adrenaline, human PRP, read-out: concentration which achieved a 50% inhibition of the platelet aggregation) it was 6.10; in the data set on human platelet (induced by collagen, human PRP, read-out: concentration which achieved a 50% inhibition of the platelet aggregation) it was 5.47. Further, the 50% lethal dose (LD50) (as a rule, the dose at which mortality reaches 50%) in “acute toxicity test” (sc, subcutaneous administration) was 350 mg/kg; in “acute toxicity test” (intravenous administration) it was 91 mg/kg; in “acute toxicity test” (oral administration) it was 750 mg/kg. Moreover, the pEC50 in the data set with mesenteric artery (mesenteric artery, KCl contraction, helical stripe specimens, read-out: ED50 (relaxing activity against KCl contraction)) is 6.70; in the data set with portal vein it was 5.40; in the data set on basilar artery, 5.89; in the data set on renal artery it was 7.00; in the data set with thoracic aorta, 6.70; in the data set with coronary artery, 6.70. Also, the “effect on respiration, blood pressure, heart rate and blood flow” value in data set [1] (10 μg/kg) is “No appreciable effect was seen”. The blood pressure result in data set [1] (100 μg/kg) was “slight degrees of a fall in blood pressure”; in data set [1] (500 μg/kg), “a transient fall in blood pressure and a subsequent lasting fall in blood pressure”. In addition, in [1] (100 μg/kg), the “force of the pulse” value is given as “a decrease in the force of the pulse”. For the same compound, the “rate of blood flow” value in data set [1] (vertebral artery and femoral artery) is given as “tended to increase at the central part as compared with the peripheral part”.

Consider `N=c1c[n+](N2CCN(CC(=O)c3ccccc3)CC2)[n-]o1` [compound B, 3-[4-(benzoylmethyl)piperazin-1-yl]sydnonimine], for which the pIC50 in the data set on human platelet (setting [2]) was 6.85. Besides, in the data set with mesenteric artery (setting [3]), the pEC50 is 6.80.

Turning to `N=c1c[n+](N2CCN(CCCC(=O)c3ccccc3)CC2)[n-]o1` [compound C, 3-[4-(3-benzoylpropyl)piperazin-1-yl]sydnonimine], the pIC50 with human platelet (setting [2]) was 5.27. Also, the pEC50 in the data set with mesenteric artery (setting [3]) was 5.64.

`N=c1c[n+](N2CCN(CCCCCC(=O)c3ccccc3)CC2)[n-]o1` [compound D, 3-[4-(5-benzoylpentyl)piperazin-1-yl]sydnonimine]: the pIC50 in the data set with human platelet (setting [2]) is 5.20. Besides, the pEC50 in the data set on mesenteric artery (setting [3]) was 5.52.

As to `N=c1c[n+](N2CCN(CCCCCCC(=O)c3ccccc3)CC2)[n-]o1` [compound E, 3-[4-(6-benzoylhexyl)piperazin-1-yl]sydnonimine], the pIC50 in the data set on human platelet (setting [2]) is 6.03. The pEC50 with mesenteric artery (setting [3]) was 6.92.

As to `N=c1c[n+](N2CCN(CCCCCCCCC(=O)c3ccccc3)CC2)[n-]o1` [compound F, 3-[4-(8-benzoyloctyl)piperazin-1-yl]sydnonimine], in the data set with human platelet (setting [2]), the pIC50 was 7.55. Further, in the data set with mesenteric artery (setting [3]), the pEC50 was 7.24.

Regarding `CC(C)CC(CCCN1CCN([n+]2cc(=N)o[n-]2)CC1)C(=O)c1ccccc1` (centres unmarked) [compound G, 3-[4-(4-benzoyl-6-methylheptyl)piperazin-1-yl]-sydnonimine], the pIC50 with human platelet (setting [2]) is 4.96. In the data set with mesenteric artery (setting [3]), the pEC50 was 5.89.
